# pEC50: −log10 of the molar value.
# Molecular target: T1, glucokinase (GK), residues 12-465 of the human enzyme (Homo sapiens, UniProt P35557)
# T1 construct: I.D. No. 1 corresponds to residues 12-465 of glucokinase; made in house; host or cells: E. coli DH10b-Tlr
# T1 sequence (P35557 with tags, fused parts or gaps isoform P35557-2): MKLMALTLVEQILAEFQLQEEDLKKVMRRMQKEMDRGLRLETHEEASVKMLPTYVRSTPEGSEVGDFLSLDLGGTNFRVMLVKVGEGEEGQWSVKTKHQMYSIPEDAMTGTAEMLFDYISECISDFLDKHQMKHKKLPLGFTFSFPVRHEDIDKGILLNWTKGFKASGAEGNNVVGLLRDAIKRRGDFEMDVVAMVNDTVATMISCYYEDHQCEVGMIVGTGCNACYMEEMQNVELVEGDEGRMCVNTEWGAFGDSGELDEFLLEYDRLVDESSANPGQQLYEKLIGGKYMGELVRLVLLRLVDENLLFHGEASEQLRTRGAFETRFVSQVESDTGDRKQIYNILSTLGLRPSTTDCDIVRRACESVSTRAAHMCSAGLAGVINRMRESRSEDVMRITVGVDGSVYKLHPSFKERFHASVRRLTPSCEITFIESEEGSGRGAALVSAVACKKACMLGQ
# Assay: Enzymatic glucokinase activity assay (KinaseGlo luminescence, ATP consumption)
# Assay type: biochemical
# Details: 5 μM ATP, 5 mM Glucose; for pEC50: GK activation, Kact = concentration giving 50% of the maximal increase in GK activity, read-out: pKact; for Emax: calculated maximal gain in GK enzyme activity at a saturating concentration of the compound, read-out: % ACTmax
# Method in brief: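 C-terminally FLAG-tagged enzyme expressed in E. coli and purified. Reaction: 25 mM Hepes pH 7.2, 25 mM NaCl, 10 mM MgCl2, 0.01% Brij35, 1 mM DTT, 5 μM ATP, 5 mM glucose, 2% DMSO, 60 min at room temperature. Remaining ATP was read by luciferase luminescence; pKact and % ACTmax came from nonlinear fits of 11-point 2-fold dilutions.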
pEC50,Emax [%],SMILES
≥ 6.20,≥ 119,"O=C(Nc1nccs1)[C@H](CC1CCCCC1)N1CCN(S(=O)(=O)c2cccc3nonc23)CC1=O [Example 176, (S)-2-(4-(benzo[c][1,2,5]oxadiazol-4-ylsulfonyl)-2-oxopiperazin-1-yl)-3-cyclohexyl-N-(thiazol-2-yl)propanamide]"
≥ 6.20,108 to 119,"O=C(Nc1nccs1)[C@H](CC1CCCCC1)N1CCN(S(=O)(=O)c2cccc(Br)c2)CC1=O [Example 232, (S)-2-(4-(3-bromophenylsulfonyl)-2-oxopiperazin-1-yl)-3-cyclohexyl-N-(thiazol-2-yl)propanamide]"
5.90 to 6.10,≤ 74,"CC(C)(C)c1ccc(S(=O)(=O)N2CCN([C@@H](CC3CCCCC3)C(=O)Nc3nccs3)C(=O)C2)cc1 [Example 224, (S)-2-(4-(4-tert-butylphenylsulfonyl)-2-oxopiperazin-1-yl)-3-cyclohexyl-N-(thiazol-2-yl)propanamide]"
5.60 to 5.80,74.1 to 97,"O=C(Nc1nccs1)[C@H](CC1CCCCC1)N1CCN(S(=O)(=O)c2ccc(F)c(Cl)c2)CC1=O [Example 177, (S)-2-(4-(3-chloro-4-fluorophenylsulfonyl)-2-oxopiperazin-1-yl)-3-cyclohexyl-N-(thiazol-2-yl)propanamide]"
5.90 to 6.10,108 to 119,"O=C(Nc1nccs1)[C@H](CC1CCCCC1)N1CCN(S(=O)(=O)c2cccc3cccnc23)CC1=O [Example 40, (S)-3-cyclohexyl-2-(2-oxo-4-(quinolin-8-ylsulfonyl)piperazin-1-yl)-N-(thiazol-2-yl)propanamide]"
5.90 to 6.10,74.1 to 97,"O=C(Nc1nccs1)[C@H](CC1CCCCC1)N1CCN(S(=O)(=O)c2cc3ccccc3o2)CC1=O [Example 226, (S)-2-(4-(benzofuran-2-ylsulfonyl)-2-oxopiperazin-1-yl)-3-cyclohexyl-N-(thiazol-2-yl)propanamide]"
5.90 to 6.10,≤ 74,"O=C(Nc1nccs1)[C@H](CC1CCCCC1)N1CCN(S(=O)(=O)c2csc3ccccc23)CC1=O [Example 50, (S)-2-(4-(benzo[b]thiophen-3-ylsulfonyl)-2-oxopiperazin-1-yl)-3-cyclohexyl-N-(thiazol-2-yl)propanamide]"
5.60 to 5.80,≤ 74,"O=C(Nc1nccs1)[C@H](CC1CCCCC1)N1CCN(S(=O)(=O)c2cccc3ccccc23)CC1=O [Example 65, (S)-3-cyclohexyl-2-(4-(naphthalen-1-ylsulfonyl)-2-oxopiperazin-1-yl)-N-(thiazol-2-yl)propanamide]"
5.90 to 6.10,97.1 to 107,"CCc1ccc(S(=O)(=O)N2CCN([C@@H](CC3CCCCC3)C(=O)Nc3nccs3)C(=O)C2)cc1 [Example 225, (S)-3-cyclohexyl-2-(4-(4-ethylphenylsulfonyl)-2-oxopiperazin-1-yl)-N-(thiazol-2-yl)propanamide]"
≥ 6.20,97.1 to 107,"O=C(Nc1nccs1)[C@H](CC1CCCCC1)N1CCN(S(=O)(=O)Cc2ccccc2)CC1=O [Example 41, (S)-2-(4-(benzylsulfonyl)-2-oxopiperazin-1-yl)-3-cyclohexyl-N-(thiazol-2-yl)propanamide]"

# The next lines start with the molecule.
SMILES,pEC50,Emax [%]
"COc1ccc(CCNC(=O)N2CCN([C@@H](CC3CCCCC3)C(=O)Nc3nccs3)C(=O)C2)cc1OC [Example 143, (S)-4-(3-cyclohexyl-1-oxo-1-(thiazol-2-ylamino)propan-2-yl)-N-(3,4-dimethoxyphenethyl)-3-oxopiperazine-1-carboxamide]",≤ 5.50,≥ 119
"O=C(Nc1nccs1)[C@H](CC1CCCCC1)N1CCN(C(=S)Nc2cccc(Cl)c2)CC1=O [Example 81, (S)-2-(4-(3-chlorophenylcarbamothioyl)-2-oxopiperazin-1-yl)-3-cyclohexyl-N-(thiazol-2-yl)propanamide]",5.60 to 5.80,97.1 to 107
"O=C(Nc1nccs1)[C@H](CC1CCCCC1)N1CCN(C(=S)NCc2ccco2)CC1=O [Example 115, (S)-3-cyclohexyl-2-(4-(furan-2-ylmethylcarbamothioyl)-2-oxopiperazin-1-yl)-N-(thiazol-2-yl)propanamide]",5.90 to 6.10,97.1 to 107
"O=C(Nc1nccs1)[C@H](CC1CCCCC1)N1CCN(S(=O)(=O)Cc2ccc(F)cc2)CC1=O [Example 68, (S)-3-cyclohexyl-2-(4-(4-fluorobenzylsulfonyl)-2-oxopiperazin-1-yl)-N-(thiazol-2-yl)propanamide]",5.90 to 6.10,97.1 to 107
"O=C(Nc1ncc(Cl)s1)C(CC1CCOCC1)N1CCN(S(=O)(=O)c2cccs2)CC1=O (stereo not drawn) [Example 36, N-(5-chlorothiazol-2-yl)-2-(2-oxo-4-(thiophen-2-ylsulfonyl)piperazin-1-yl)-3-(tetrahydro-2H-pyran-4-yl)propanamide]",≥ 6.20,108 to 119
"O=C(Nc1nccs1)[C@H](CC1CCCCC1)N1CCN(S(=O)(=O)CC(F)(F)F)CC1=O [Example 93, (S)-3-cyclohexyl-2-(2-oxo-4-(2,2,2-trifluoroethylsulfonyl)piperazin-1-yl)-N-(thiazol-2-yl)propanamide]",5.60 to 5.80,≥ 119
"CCOC(=O)c1nc(-c2ccc(S(=O)(=O)N3CCN([C@@H](CC4CCCCC4)C(=O)Nc4nccs4)C(=O)C3)s2)no1 [Example 167, (S)-ethyl 3-(5-(4-(3-cyclohexyl-1-oxo-1-(thiazol-2-ylamino)propan-2-yl)-3-oxopiperazin-1-ylsulfonyl)thiophen-2-yl)-1,2,4-oxadiazole-5-carboxylate]",5.60 to 5.80,≤ 74
"CN1CCOc2cc(S(=O)(=O)N3CCN([C@@H](CC4CCCCC4)C(=O)Nc4nccs4)C(=O)C3)ccc21 [Example 44, (S)-3-cyclohexyl-2-(4-(4-methyl-3,4-dihydro-2H-benzo[b][1,4]oxazin-7-ylsulfonyl)-2-oxopiperazin-1-yl)-N-(thiazol-2-yl)propanamide]",≥ 6.20,97.1 to 107
"O=C(Nc1nccs1)[C@H](CC1CCCCC1)N1CCN(C(=O)NC2CCCC2)CC1=O [Example 140, (S)-4-(3-cyclohexyl-1-oxo-1-(thiazol-2-ylamino)propan-2-yl)-N-cyclopentyl-3-oxopiperazine-1-carboxamide]",≤ 5.50,74.1 to 97
"N#Cc1ccc(NC(=S)N2CCN([C@@H](CC3CCCCC3)C(=O)Nc3nccs3)C(=O)C2)cc1 [Example 126, (S)-2-(4-(4-cyanophenylcarbamothioyl)-2-oxopiperazin-1-yl)-3-cyclohexyl-N-(thiazol-2-yl)propanamide]",5.90 to 6.10,97.1 to 107
"O=C(Nc1nccs1)[C@H](CC1CCCCC1)N1CCN2[C@@H](CCS2(=O)=O)C1=O [Example 31, (S)-3-Cyclohexyl-N-thiazol-2-yl-2-((S)-1,1,4-trioxo-hexahydro-1λ*6*-thia-5,7a-diaza-inden-5-yl)-propionamide]",≤ 5.50,74.1 to 97
"O=C(Nc1nccs1)[C@H](CC1CCCCC1)N1CCN(C(=S)NCc2ccc(F)cc2)CC1=O [Example 120, (S)-3-cyclohexyl-2-(4-(4-fluorobenzylcarbamothioyl)-2-oxopiperazin-1-yl)-N-(thiazol-2-yl)propanamide]",5.90 to 6.10,108 to 119
"COC(=O)c1c(C)oc(C)c1S(=O)(=O)N1CCN([C@@H](CC2CCCCC2)C(=O)Nc2nccs2)C(=O)C1 [Example 162, (S)-methyl 4-(4-(3-cyclohexyl-1-oxo-1-(thiazol-2-ylamino)propan-2-yl)-3-oxopiperazin-1-ylsulfonyl)-2,5-dimethylfuran-3-carboxylate]",≤ 5.50,≤ 74
"Cc1cc(S(=O)(=O)N2CCN([C@@H](CC3CCCCC3)C(=O)Nc3nccs3)C(=O)C2)c(C)s1 [Example 180, (S)-3-cyclohexyl-2-(4-(2,5-dimethylthiophen-3-ylsulfonyl)-2-oxopiperazin-1-yl)-N-(thiazol-2-yl)propanamide]",≥ 6.20,108 to 119
"O=C(Nc1ncc(Cl)s1)C(CC1CCOCC1)N1CCN(S(=O)(=O)C2CC2)CC1=O (stereo not drawn) [Example 23, N-(5-chlorothiazol-2-yl)-2-(4-(cyclopropylsulfonyl)-2-oxopiperazin-1-yl)-3-(tetrahydro-2H-pyran-4-yl)propanamide]",5.60 to 5.80,≥ 119
"COc1ccc(NC(=S)N2CCN([C@@H](CC3CCCCC3)C(=O)Nc3nccs3)C(=O)C2)cc1 [Example 86, (S)-3-cyclohexyl-2-(4-(4-methoxyphenylcarbamothioyl)-2-oxopiperazin-1-yl)-N-(thiazol-2-yl)propanamide]",≤ 5.50,97.1 to 107
"O=C(Nc1ncc(F)s1)C(CC1CCOCC1)N1CCN(S(=O)(=O)c2cccc(F)c2)CC1=O (stereo not drawn) [Example 148, 2-(4-(3-fluorophenylsulfonyl)-2-oxopiperazin-1-yl)-N-(5-fluorothiazol-2-yl)-3-(tetrahydro-2H-pyran-4-yl)propanamide]",5.90 to 6.10,108 to 119

# — US8173645B2 (Takeda San Diego, Inc., priority 2007, dated 2012)
